In US9156811B2 (priority 2008, dated 2015):
Read-outs that look alike come from different tables or passages of the source.

What was measured:
[1] = molecular target: T. brucei N-myristoyl transferase (Trypanosoma brucei brucei (strain 927/4 GUTat10.1), UniProt Q388H8); assay: biochemical; assay type: biochemical
[2] = test system: Trypanosome (T. brucei brucei); assay: In-vitro antitrypanosomal efficacy assay (cell growth, resazurin); assay type: cell-based
[3] = value printed without enzyme tag in the NMT Enzyme column (taken as T. brucei NMT), read-out: IC50 (μM) NMT Enzyme
[4] = value with no enzyme tag in the cell, taken as T. brucei NMT, read-out: IC50 (μM) NMT Enzyme
[5] = T. brucei NMT, value without parentheses, read-out: IC50 (μM) NMT Enzyme (T. brucei NMT)
[6] = T. brucei brucei, blood stream form, variant 221

Sequence of T. brucei N-myristoyl transferase (Q388H8 1-446): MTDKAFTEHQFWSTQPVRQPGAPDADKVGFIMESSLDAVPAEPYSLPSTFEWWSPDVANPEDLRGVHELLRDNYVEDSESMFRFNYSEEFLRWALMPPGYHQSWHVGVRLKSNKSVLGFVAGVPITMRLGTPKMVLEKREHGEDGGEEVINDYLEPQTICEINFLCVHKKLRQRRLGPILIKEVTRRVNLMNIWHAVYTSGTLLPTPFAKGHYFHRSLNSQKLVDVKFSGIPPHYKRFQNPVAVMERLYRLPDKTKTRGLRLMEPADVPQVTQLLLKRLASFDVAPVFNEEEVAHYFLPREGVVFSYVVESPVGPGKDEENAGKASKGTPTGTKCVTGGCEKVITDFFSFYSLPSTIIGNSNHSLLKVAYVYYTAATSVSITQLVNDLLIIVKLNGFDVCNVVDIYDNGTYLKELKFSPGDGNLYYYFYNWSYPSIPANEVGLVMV

SMILES | IC50 [1, 3] [µM] | ED50 (μM) T. brucei ([2]; T. brucei cell growth) [µM] | further results
Cc1nn(C)c(C)c1NS(=O)(=O)c1ccc(-c2ccnc(N3CCNC(c4ccccc4)C3)c2)cc1 (centres unmarked) [DDD87756, 4-[2-(3-Phenyl-piperazin-1-yl)-pyridin-4-yl]-N-(1,3,5-trimethyl-1H-pyrazol-4-yl)-benzenesulfonamide] | – | >1 | IC50 ([1]; read-out: IC50 (μM) NMT Enzyme): 0.76 µM
COc1cc(C)c([S+](=O)([O-])Nc2c(C)cc(C)cc2C)c(C)c1C [DDD71645] | > 100 | >1 | –
Cc1nn(C)c(C)c1N[S+](=O)([O-])c1ccc(NCCc2ccc3ccccc3c2)nc1 [DDD73489] | 12.4 | >1 | –
Cc1nn(C)c(C)c1N[S+](=O)([O-])c1c(Cl)cc(C#Cc2ccccc2)cc1Cl [DDD73485] | 34.3 | >1 | –
Cc1c(N[S+](=O)([O-])c2c(Cl)cc(Br)cc2Cl)cnn1C [DDD88315] | – | >10 | IC50 [1, 4]: 20 µM
Cc1nn(C)c(C)c1N(CCCO)S(=O)(=O)c1c(Cl)cc(Br)cc1Cl [DDD85593, 4-Bromo-2,6-dichloro-N-(3-hydroxy-propyl)-N-(1,3,5-trimethyl-1H-pyrazol-4-yl)-benzenesulfonamide] | 0.36 | 3.5 | –
COc1cc(C)c([S+](=O)([O-])Nc2ccncc2)c(C)c1C [DDD71280] | > 100 | >1 | –
Cc1nn(C)c(C)c1N[S+](=O)([O-])c1c(Cl)cc(-c2ccnc(NCCN)c2)cc1Cl | – | >1 | IC50 [1, 4]: 1 µM
Cc1c(N[S+](=O)([O-])c2ccc(CCCCC3CCN(C)CC3)cc2)c(CC(C)C)nn1C [DDD100162] | – | – | IC50 [1, 5]: 0.01 µM; ED50 (μM) T. brucei [2, 6]: 0.093 µM
Cc1c(N[S+](=O)([O-])c2ccc(CCCOC3CCN(C)CC3)cc2)c(CC(C)C)nn1C [DDD100168] | – | – | IC50 [1, 5]: 0.009 µM; ED50 (μM) T. brucei [2, 6]: 0.110 µM
Cc1nn(C)c(C)c1N[S+](=O)([O-])c1c(Cl)cc(-c2cccc(C(F)(F)F)c2)cc1Cl [DDD73277] | 40 | >1 | –
Cc1nn(C)c(C)c1N[S+](=O)([O-])c1ccc(NCCCN2CCN(Cc3ccccc3)CC2)nc1 [DD86299] | – | >1 | IC50 [1, 4]: 1 µM
COc1ccc(OCCC[S+](=O)([O-])Nc2c(C)nn(C)c2C)cc1 [DDD71275] | 62 | >1 | –
Cc1nn(C)c(C)c1N(C1CC1)[S+](=O)([O-])c1c(Cl)cc(Br)cc1Cl [DDD85591] | 0.59 | 5.3 | –
Cc1nn(C)c(C)c1N[S+](=O)([O-])c1ccc(-n2cccn2)cc1 [DDD71294] | 4.8 | >1 | –
COc1cc(C)c([S+](=O)([O-])NCc2c(C)nn(C)c2C)c(C)c1C [DDD71296] | > 100 | >1 | –
Cc1nn(C)c(C)c1N[S+](=O)([O-])c1ccc(NCCCNC2CCN(Cc3ccccc3)C2)nc1 (centres unmarked) [DDD86295] | – | >1 | IC50 [1, 4]: 1 µM
Cc1nn(C)c(C)c1N[S+](=O)([O-])c1ccc(CNc2ccc(-c3ccccn3)cc2)cc1 [DDD73508] | 5.2 | >1 | –
Cc1c(N[S+](=O)([O-])c2ccc(-c3cccc(CN(C)C)c3)c(C(F)(F)F)c2)c(CC(C)C)nn1C [DDD99822] | – | 0.051 | IC50 [1, 4]: 0.006 µM
Cc1nn(C)c(C)c1N[S+](=O)([O-])c1ccc(Nc2ccccc2)nc1 [DDD73480] | 4.5 | 22.1 | –

SMILES | IC50 [1, 3] [µM] | ED50 (μM) T. brucei ([2]; T. brucei cell growth) [µM] | further results
COc1cc(C)c([S+](=O)([O-])Nc2cccnc2C)c(C)c1C [DDD71279] | 10 | >1 | –
COc1cc(C)c([S+](=O)([O-])Nc2cc[nH]n2)c(C)c1C [DDD71630] | > 100 | >1 | –
Cc1nn(C)c(C)c1N(C)[S+](=O)([O-])c1ccc(N2CCc3c(N)cccc3C2)nc1 [DDD85605] | 0.57 | 2.4 | –
Cc1nn(C)c(C)c1N[S+](=O)([O-])c1ccc(COCCCN2CCN(C)CC2)cc1 [DDD85648] | – | >1 | IC50 [1, 4]: 47.7 µM
CC(=O)c1cccc(Nc2ccc([S+](=O)([O-])Nc3c(C)nn(C)c3C)cn2)c1 [DDD86311] | – | >1 | IC50 [1, 4]: 1 µM
Cc1nn(C)c(C)c1N[S+](=O)([O-])c1cccc2cccnc12 [DDD71283] | 7.4 | >1 | –
Cc1nn(C)c(C)c1N[S+](=O)([O-])c1ccc(CSc2ccc3ccccc3c2)cc1 [DDD73516] | 47.6 | >1 | –
COc1cc(C)c([S+](=O)([O-])Nc2c(C)nn(C(C)C)c2C)c(C)c1C [DDD73497] | > 100 | >1 | –
Cc1cc(N2CCCC2=O)cc(C)c1[S+](=O)([O-])Nc1c(C)nn(C)c1C [DDD22988] | 8.3 | >1 | –
COCCNCc1cccc(-c2ccc([S+](=O)([O-])Nc3c(CC(C)C)nn(C)c3C)cc2)c1 [DDD100797] | – | – | IC50 [1, 5]: 0.023 µM; ED50 (μM) T. brucei [2, 6]: 0.492 µM
COc1ccc(OC)c([S+](=O)([O-])Nc2c(C)nn(C)c2C)c1 [DDD64750] | 30 | >1 | –
Cc1nn(C)c(C)c1N[S+](=O)([O-])c1ccc(-c2cccc(CC3CCN(C)CC3)c2)cc1 [DDD90107] | – | 0.040 | IC50 [1, 4]: 0.004 µM
Cc1nn(C)c(C)c1N[S+](=O)([O-])c1ccc(COc2ccc(C(C)(C)c3ccccc3)cc2)cc1 [DDD73499] | > 100 | >1 | –
Cc1noc(C)c1N[S+](=O)([O-])c1ccc(CCCN2CCN(C)CC2)cc1 [DDD88190] | – | 31.0 | IC50 [1, 4]: 1.1 µM
COc1cc(C)c([S+](=O)([O-])Nc2c(C)noc2C)c(C)c1C [DDD71285] | 19.3 | >1 | –
Cc1c(N[S+](=O)([O-])c2c(Cl)cc(CCCC3CCN(C)CC3)cc2Cl)c(CC(C)C)nn1C [DDD99743] | – | 0.005 | IC50 [1, 4]: 0.003 µM
Cc1nn(C)c(C)c1N[S+](=O)([O-])c1ccc(COCCCN(C)C)cc1 [DDD85647] | – | >1 | IC50 [1, 4]: 66.1 µM
Cc1nn(C)c(C)c1N[S+](=O)([O-])c1c(Cl)cc(C#CCN2CCCCC2)cc1Cl [DDD86476] | – | >1 | IC50 [1, 4]: 5.9 µM
COc1cc(C)c([S+](=O)([O-])Nc2cnc3ccccn23)c(C)c1C [DDD71277] | 95 | >1 | –

More lines, main results first:

IC50 [1, 3] [µM] | SMILES | ED50 (μM) T. brucei ([2]; T. brucei cell growth) [µM] | further results
8.8 | CC(=O)N1CCc2cc([S+](=O)([O-])Nc3c(C)nn(C)c3C)ccc21 [DDD71237] | >1 | –
5.7 | COc1ccc(NCc2ccc([S+](=O)([O-])Nc3c(C)nn(C)c3C)cc2)cc1 [DDD73513] | >1 | –
42 | COc1cc([S+](=O)([O-])Nc2c(C)nn(C)c2C)ccc1NC(C)=O [DDD71623] | >1 | –
0.63 | Cc1nn(C)c(C)c1N[S+](=O)([O-])c1ccc(CNC(=O)c2ccccc2)s1 [DDD73238] | 6.9 | –
11.8 | Cc1nn(C)c(C)c1N[S+](=O)([O-])c1ccccc1 [DDD48025] | >1 | –
> 100 | Cc1nn(C)c(C)c1N[S+](=O)([O-])c1ccc(CN2CCNC(=O)C2)cc1 [DDD73225] | >1 | –
3.8 | Cc1nn(C)c(C)c1N[S+](=O)([O-])c1ccc(CNc2ccccc2)cc1 [DDD73509] | >1 | –
3.4 | Cc1nn(C)c(C)c1N[S+](=O)([O-])c1ccc2c(c1)CCC(=O)N2 [DDD71247] | >1 | –
6.1 | Cc1nn(C)c(C)c1N[S+](=O)([O-])c1ccc(Cn2cnc3ccccc32)cc1 [DDD73512] | >1 | –
2.6 | Cc1nn(C)c(C)c1N[S+](=O)([O-])c1ccc(NCc2cccc(N(C)C)c2)nc1 [DDD73320] | 16.3 | –
41.7 | Cc1nn(C)c(C)c1N[S+](=O)([O-])c1ccc(CN2CCCc3ccccc32)cc1 [DDD85596] | >1 | –
17.4 | Cc1nn(C)c(C)c1N[S+](=O)([O-])c1ccc(Cl)c(C(F)(F)F)c1 [DDD71252] | >1 | –
2.7 | Cc1nn(C)c(C)c1N[S+](=O)([O-])c1ccc(OC(F)(F)F)cc1 [DDD71234] | >1 | –
2.4 | Cc1nn(C)c(C)c1N[S+](=O)([O-])c1ccc(NCCCN(C)C)nc1 [DDD85629] | 38.0 | –
11.9 | Cc1nn(C)c(C)c1N[S+](=O)([O-])c1ccc(N2CCN(C)CC2)nc1 [DDD73236] | >1 | –
2.7 | Cc1nn(C)c(C)c1N[S+](=O)([O-])c1ccc(NCc2cccnc2)nc1 [DDD73233] | >1 | –
1.5 | Cc1nn(C)c(C)c1N[S+](=O)([O-])c1ccc(C(C)C)cc1 [DDD71241] | >1 | –
9.9 | Cc1nn(C)c(C)c1N[S+](=O)([O-])c1ccc(Cl)c(Cl)c1 [DDD00071594] | >1 | –
0.9 | Cc1nn(C)c(C)c1N[S+](=O)([O-])c1ccc(N2CCc3ccccc3C2)nc1 [DDD73227] | 8.1 | –
1.1 | Cc1nn(C)c(C)c1N[S+](=O)([O-])c1c(Cl)cc(-c2cccc(C(N)=O)c2)cc1Cl [DDD73279] | 2.1 | –
0.61 | Cc1nn(C)c(C)c1N[S+](=O)([O-])c1ccc(N(C)CCCN(C)C)nc1 [DDD85626] | 1.9 | –
5.6 | Cc1nn(C)c(C)c1N[S+](=O)([O-])c1ccccc1F [DDD71245] | >1 | –
